From US20100254965A1, “Adenosine Signaling in Diagnosis, Treatment, and Prevention of Priapism and Erectile Dysfunction” (BOARD OF REGENTS ,THE UNIVERSITY OF TEXAS SYSTEM, priority 2006, published 2010)

Columns and labels:
[1] = tested on: corpus cavernosal strips (CCS); assay: EFS-induced relaxation of CCS of SCD transgenic mice and controls; type: cell-based, mouse
Experimental: FIG. 21. Priapic activity seen in SCD transgenic mice is dependent on elevated adenosine in penis via A2BR signaling. (a) Adenosine levels in the penis increased in SCD transgenic mice. Perchloric acid extracts of penile tissues from SCD transgenic mice and control mice were analyzed by HPLC to determine the levels of adenosine. The data are expressed as mean±SE. *p<0.005, (control n=5 and SCD transgenic mice n=6), SCD transgenic mice versus the controls. (b) Increased corpus cavernosum strips (CCS) relaxation by electrical field stimulation (EFS) in SCD transgenic mice. Relaxation effect of EFS with different voltages (0-30V) at 30 Hz and 0.5 ms pulse width, alternating polarity between pulses, in 10 μM phenylephrine-precontracted CCS from the controls (n=5) and SCD transgenic mice (n=5). (c-e) Prolonged penile erection seen in SCD transgenic mice is due to high levels of adenosine in the penis via A2BR signaling. Average EFS-induced relaxation from the PE-precontracted CC strips of the controls and SCD transgenic mice treated without or with PEG-ADA, MRS1706 or ZM241389. EFS-induced force change (c), duration of relaxation by EFS (d) and area under basal line (e) were representative of the CCS relaxation. (n=5 for the controls and n=5 for SCD transgenic mice with or without PEG-ADA, MRS1706 or ZM241389 treatment, respectively). Data are given as means±SE. *p<0.05, SCD transgenic mice versus the controls, **p<0.05, CCS of […] with PEG-ADA, MRS1706 or ZM241389 treatment versus CCS of SCD transgenic mice without treatment; ***p<0.05, CCS of the control mice with MRS1706 and/or L-NAME treatment versus CCS of the control mice without treatment.
Sickle cell disease (SCD) transgenic mice, expressing exclusively human sickle hemoglobin, were also used. These mice were age-matched, adult male homozygotes [SS^−/−, consisting of a transgene and two targeted gene deletions: (Tg (Hu-miniLCR alpha 1G gamma A gamma delta beta s) Hba0//Hba0 Hbb0//Hbb00) and heterozygotes (SS^−/+, SS^−/− genotype except Hbb0//Hbb+), developed on a mixed-strain background (mouse strains FVB/N, 129, DBA/2, C57BL/6, Black Swiss)^94,95.
Function experiments. The tunica albuginea was cut longitudinally, starting at the most proximal point of the corpus cavernosum (CC) toward the penile shaft, and the erectile tissue was partially dissected free from the tunica. One strip of tissue (0.3×0.3×3 mm) was obtained from each corpus cavernosum. The contractility of each isolated corpus cavernosum smooth muscle cells (CCSM) strip was measured using an isometric force transducer (AD Instrument Inc., Georgia, Vt., USA). The strip was mounted in a thermostatically controlled tissue bath containing aerated PSS (mM: 119 NaCl, 4.7 KCl, 24 NaHCO 3, 1.2 KH2PO4, 2.5 CaCl2, 1.2 MgSO4, 0.023 EDTA, and 11 glucose; 5 ml volume, 95% O2 and 5% CO2, 37° C.) and stretched to a resting tension of 0.1 mN. The contractile responses of the strips were analysed by adding 10 μM phenylephrine to the bath, and force changes were recorded in response to drug application and to electrical field stimulation. The particular electrical field stimulation parameters of 0-30V, 30 HZ with a pulse width of approximately 0.5 ms, are commonly used in the mice. […] The changes of cAMP and cGMP contents in CC strips were subsequently measured by commercial enzyme immunoassay kit (Amersham Pharmacia) (see below).

[2] = tested on: corpus cavernosal strips (CCS); assay: cAMP levels in isolated CCS (penile organ culture) in response to adenosine; type: cell-based, mouse
Experimental: FIG. 17. A2BR signaling is required for adenosine-mediated corpus cavernosal strips (CCS) relaxation. (a) CCS of wild type mice were treated with different concentrations of theophiline (1-10 μM) in the presence or absence of adenosine (100 μM). The force changes were measured by force transducer. Data are expressed as mean±SE. *p<0.05, adenosine treated versus the control, **p<0.05, theophiline treated versus the untreated, N=5. (b) CCS from wild type, A2AR, A1R A2BR and A3R-deficient mice were treated with different concentrations of adenosine. The relaxation was measured by force transducer. Data are expressed as mean±SE. *p<0.05, adenosine treated versus the wild type. […] 10 min after treatment, cellular extracts were collected and cAMP levels were measured by using a commercial enzyme immunoassay kit (Amersham Pharmacia). Data are expressed as mean±SE. *p<0.05, adenosine treated versus the control without treatment; **p<0.05, adenosine treated with MRS1706 versus the adenosine treated alone; ***p<0.05, CCS of A2BR-deficient mice treated with adenosine versus the CCS of wild type mice treated with adenosine. […]
In vitro corpus cavernosum tissue culture. […] Subsequently cavernosal strips were removed at and immediately frozen in liquid nitrogen for phosphorylation of myosin light chain determined by western blot analysis (see below). […]

[3] = CCS of SCD transgenic mice versus untreated CCS

| Compound | force, duration and area under baseline of EFS-induced relaxation [1, 3] | force, duration and area under baseline of EFS-induced relaxation ([1]; CCS of the controls) | adenosine-mediated induction of cAMP was inhibited ([2]; CCS, MRS1706 10 μM, L-NAME 100 μM) | cAMP levels ([2]; wild type penile organ culture, 10 min) |
| --- | --- | --- | --- | --- |
| CCCn1c(=O)c2[nH]c(-c3ccc(OCC(=O)Nc4ccc(C(C)=O)cc4)cc3)nc2n(CCC)c1=O [MRS1706] | reduced the force, duration and area under baseline | decreased the force, duration and area under baseline | inhibited | – |
| Nc1nc(NCCc2ccc(O)cc2)nc2nc(-c3ccco3)nn12 [ZM241385] | not | – | – | – |
| Nc1ncnc2c1ncn2[C@@H]1O[C@H](CO)[C@@H](O)[C@H]1O [adenosine] | – | – | – | induced cAMP levels in a dose-dependent manner |
